# Where two headings read alike, the source gives them in different places.
# Tests used:
# tubulin [1] = experiment: MA IC50 (Tables 12-26, abbreviation not defined); type: biochemical
# tubulin [2] = experiment: CD IC50 (Tables 12-26, abbreviation not defined); type: binding
# [3] = system: L1210 murine leukaemia cell line; experiment: MTT, L1210; type: cell-based; conditions: Mus musculus; L1210 murine leukaemia cell line (footnote a)
# [4] = system: K562 human myelogeneous leukaemia cell line; experiment: Cytotoxicity/growth inhibition assay (MTT), K562; type: cell-based; conditions: Homo sapiens, K562; MTT; read-out: K562 IC50
# Procedure, shortened: (§1)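 Growth inhibition of P388 murine and K562 human leukaemia cells measured by MTT assay.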
# tubulin [5] = system: T1, tubulin; experiment: Inhibition of tubulin assembly; type: biochemical; conditions: concentration required to reduce assembly of tubulin by 50%
# T1 construct: other: concentration required to reduce assembly of tubulin by 50%
# Description: (§2) The following assays (1–5) were carried out as described in our paper (Woods, et al, British Journal of Cancer, 71, 705–711 (1995)). In addition to the cell lines described in this paper, other established human cell lines (K562, HUVEC, H460, BE, H529, and HT29) were used in the cytotoxicity/growth inhibition assay. • (1) Inhibition of tubulin assembly. The figure quoted is the concentration required to reduce assembly of tubulin by 50%. Tubulin assembly is monitored by light scatter/absorption at 350 nm.
# A2780 = experiment: Cytotoxicity/growth inhibition assay (MTT), A2780; type: cell-based
# Procedure, shortened: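 MTT cytotoxicity/growth-inhibition assay in human cell lines including A2780, A2780/ADR, H460 and HUVEC.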
# [6] = system: P388 murine leukaemia cell line; experiment: Cytotoxicity/growth inhibition assay (MTT), P388; type: cell-based
# Procedure, shortened: as §1
# [7] = system: H460 human lung cell line; experiment: Cytotoxicity/growth inhibition assay (MTT), H460; type: cell-based
# Description: as §2
# (§3) (2) Competition for the colchicine binding site on tubulin. The figure quoted represents the % of ^3H-colchicine bound following co-incubation of test compound and ^3H-cochicine with isolated tubulin. Where ester pro-drugs were used the experiments were carried out in the presence and absence of porcine liver esterase. • (3) Cytotoxicity/growth inhibition assay. This was carried out by the MTT assay. • (4) Permeability (shape-change) assay in endothelial cells. This was carried out using a method based on that of Watts et al. (Anticancer Res., 17, 71–75, (1997)). This involved the diffusion of a fluorescently labelled dextran through a barrier of endothelial cells (HUVEC) grown to confluence on a porous membrane. The effect of agents to alter the shape of these cells results in an increase in the permeability of the cells to the dye. The figure represents the increase in permeability over control cultures when drug is added (30 minutes, 1 mM.). • (5) Experiments to study the anti-vascular effects of these agents were carried out as described previously by our group. (Zhao et al, European Journal of Nuclear Medicine, 26, 231–238 (1999)). The anti-vascular effects of the agents were monitored by either positron emission tomography (PET) or by histologogical examination following treatment of mice bearing T50:80 murine breast tumours, or H460 human lung tumours. • (6) Anti-tumour efficacy of agents was determined in xenografts of H460 human lung cancer. Animals (n=5) were trated either with 5 daily injections and tumour size measured with time following treatment. • (7) The pharmacokinetic profile of agents was determined in mice following injection with drug. Blood was taken at various times following treatment and analysed by HPLC with UV detection. The HPLC conditions were isocratic using a 5 micron C18 BDS column (150×4.6) ad eluting with 75% MeOH in water with a detection wavelength of 290 nm. […] (AND(P)H:quinone oxidoreductace, EC 1.6.99.2). DT-diaphorase is an enzyme over-expressed in a number of human tumours. […] This two-electron reducing enzyme can be used to selectively activate prodrugs within cancers which over-express the enzyme.
# [8] = system: diaphorase null H596 cell line; experiment: Cytotoxicity/growth inhibition assay (MTT), H596; type: cell-based; conditions: for H596/H460: ratio of IC50, diaphorase null H596 over H460
# Description: as §2
# (2) Competition for the colchicine binding site on tubulin. The figure quoted represents the % of ^3H-colchicine bound following co-incubation of test compound and ^3H-cochicine with isolated tubulin. Where ester pro-drugs were used the experiments were carried out in the presence and absence of porcine liver esterase. • (3) Cytotoxicity/growth inhibition assay. This was carried out by the MTT assay. • (4) Permeability (shape-change) assay in endothelial cells. This was carried out using a method based on that of Watts et al. (Anticancer Res., 17, 71–75, (1997)). This involved the diffusion of a fluorescently labelled dextran through a barrier of endothelial cells (HUVEC) grown to confluence on a porous membrane. The effect of agents to alter the shape of these cells results in an increase in the permeability of the cells to the dye. The figure represents the increase in permeability over control cultures when drug is added (30 minutes, 1 mM.). • (5) Experiments to study the anti-vascular effects of these agents were carried out as described previously by our group. (Zhao et al, European Journal of Nuclear Medicine, 26, 231–238 (1999)). The anti-vascular effects of the agents were monitored by either positron emission tomography (PET) or by histologogical examination following treatment of mice bearing T50:80 murine breast tumours, or H460 human lung tumours. • (6) Anti-tumour efficacy of agents was determined in xenografts of H460 human lung cancer. Animals (n=5) were trated either with 5 daily injections and tumour size measured with time following treatment. • (7) The pharmacokinetic profile of agents was determined in mice following injection with drug. Blood was taken at various times following treatment and analysed by HPLC with UV detection. The HPLC conditions were isocratic using a 5 micron C18 BDS column (150×4.6) ad eluting with 75% MeOH in water with a detection wavelength of 290 nm. The retention time of 6.6 mins for 97–64H. • (8) Activation of quinone prodrugs by DT-diaphorase. (AND(P)H:quinone oxidoreductace, EC 1.6.99.2). DT-diaphorase is an enzyme over-expressed in a number of human tumours. We have recently shown this enzyme to be highly expressed in the endothelial cells of blood vessels. This two-electron reducing enzyme can be used to selectively activate prodrugs within cancers which over-express the enzyme. We have therefore synthesised quinone pro-drugs (97–96, 98–40, 98–23, 98–33, 98–24) which, upon reduction by the enzyme, produces an agent (a hydroquinone stilbene) which is cytotoxic.
# A series of prodrugs capable of being activated by DT-diaphorase, an enzyme over-expressed in a wide range of human cancers and in endothelial cells of the vasculature were synthesised. The rationale for this is that these agents will be activated in situ by the tumours over-expressing the enzyme, thus giving rise to a high local concentration of active drug. This confers selectivity to this agent. These quinone prodrugs (97–96 and 98–23) were tested for their ability to act as substrates for DT-diaphorase. […] This agent may therefore have a role in the treatment of tumours that over-express DT-diaphorase. Similarly, these agents maybe selectively activated in the endothelial cells of the vasculature, thereby conferring a selective anti-vascular effect.
# HUVEC = experiment: Growth inhibition studies using HUVEC; type: cell-based, human
# Description: as §2, §3
# [9] = system: H460 human lung cancer xenografts; experiment: Anti-tumour efficacy in xenografts of H460 human lung cancer; type: in vivo, mice; conditions: H460 human lung cancer xenograft
# Description: (§4) (2) Competition for the colchicine binding site on tubulin. The figure quoted represents the % of ^3H-colchicine bound following co-incubation of test compound and ^3H-cochicine with isolated tubulin. Where ester pro-drugs were used the experiments were carried out in the presence and absence of porcine liver esterase. • (3) Cytotoxicity/growth inhibition assay. This was carried out by the MTT assay. • (4) Permeability (shape-change) assay in endothelial cells. This was carried out using a method based on that of Watts et al. (Anticancer Res., 17, 71–75, (1997)). This involved the diffusion of a fluorescently labelled dextran through a barrier of endothelial cells (HUVEC) grown to confluence on a porous membrane. […] The anti-vascular effects of the agents were monitored by either positron emission tomography (PET) or by histologogical examination following treatment of mice bearing T50:80 murine breast tumours, or H460 human lung tumours. • (6) Anti-tumour efficacy of agents was determined in xenografts of H460 human lung cancer. Animals (n=5) were trated either with 5 daily injections and tumour size measured with time following treatment. • (7) The pharmacokinetic profile of agents was determined in mice following injection with drug. Blood was taken at various times following treatment and analysed by HPLC with UV detection. […]
# DT-diaphorase = DT-diaphorase (Homo sapiens, UniProt P15559); experiment: Activation of quinone prodrugs by DT-diaphorase; type: biochemical; conditions: comparable to RH1
# Description: as §4
# [10] = system: H460 human lung xenograft; experiment: Tumour damage in H460 human lung xenograft grown subcutaneously; type: in vivo; conditions: 0.75×MTD, i.p., twenty four hours following injection
# Description: The effect of compounds 97–64H and 97–96 (quinone compound) was tested on H460 human lung xenograft grown subcutaneously by injecting equitoxic doses of the compounds (0.75×MTD).
# [11] = system: cancer cell growth in vitro; experiment: Inhibition of cancer cell growth in vitro (cell line not stated); type: cell-based; conditions: read-out: IC50, ability to inhibit cancer cell growth in vitro
# K562 cells = experiment: In situ ultra violet irradiation of dosed K562 cells, IC50; type: cell-based, human; conditions: K562, in situ, within 2 seconds of exposure; read-out: IC50 after exposure to ultraviolet light
# Description: Previously, the isomerisation study had been performed ex situ, i.e. in a photochemical reactor. However, it was necessary to illustrate the potential of the process as a real therapy by repeating the isomerization in the presence of the caner cells i.e. in situ. […] Following irradiation, the cells were incubated in the normal way and the IC50 values were determined.
# These consisted of i) exposing K562 cells only (i.e. cells which were not dosed with any potential drug candidate) to ultra violet light, ii) preventing K562 cells dosed with drug candidate from being exposed to ultra violet light, and iii) preventing K562 cells only (i.e. cells which were not dosed with any potential drug candidate) from being exposed to ultra violet light. […]
# [12] = system: cancer cell growth in vitro; conditions: background; cited from earlier work
# K562 = K562 cell cycle analysis; type: cell-based, human
# [13] = background; cited from earlier work
# [14] = Homo sapiens, A2780, read-out: IC50 (nM) A2780
# Sequence of DT-diaphorase (P15559 whole entry, species assumed): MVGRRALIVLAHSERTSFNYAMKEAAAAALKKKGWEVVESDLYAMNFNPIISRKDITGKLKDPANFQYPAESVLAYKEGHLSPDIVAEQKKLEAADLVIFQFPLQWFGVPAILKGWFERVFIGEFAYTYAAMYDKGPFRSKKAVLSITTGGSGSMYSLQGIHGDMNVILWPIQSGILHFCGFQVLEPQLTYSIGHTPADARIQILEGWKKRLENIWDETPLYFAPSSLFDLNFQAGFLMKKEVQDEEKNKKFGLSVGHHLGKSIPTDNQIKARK
compound,measurement,setting,value
COC(=O)CCOc1cc([N+](=O)[O-])c(CCc2cc(/C=C\c3cc(OC)c(OC)c(OC)c3)ccc2OC)cc1OC,melting point,,132 to 134 °C
"COc1ccc(/C=C\c2cc(O)c(OC)c(OC)c2)cc1O [Compound 18, reference compound]",IC50,tubulin [1],4000 to 5000 nM
same,IC50,tubulin [2],22000 nM
same,IC50,[3],0.04 µM
"COc1ccc(/C=C(/C)c2cc(OC)c(OC)c(OC)c2)cc1O [Compound 19, Z-(3′-Hydroxy-4′-methoxyphenyl)-2-(3″,4″,5″-trimethoxyphenyl)propene]",IC50,[4],40 nM
same,IC50,tubulin [5],1.8 µM
same,melting point,,156 to 158 °C
"COc1ccc(/C=C\c2cc(C)c(C)c(C)c2)cc1O [Compound 28, (Z)-1-(3′,4′,5′-trimethylphenyl)-2-(3″-hydroxy-4″-methoxyphenyl)ethene]",IC50,[4],21 nM
same,IC50,tubulin [5],1.5 µM
same,melting point,,60 to 61 °C
"COC1=CC(=O)C(/C=C\c2cc(OC)c(OC)c(OC)c2)=CC1=O [Compound 97-96, 2-Methoxy-5-[(Z)-2-(3′,4′,5′-trimethoxyphenyl)-vinyl]-[1,4]benzoquinone]",IC50,"A2780; Homo sapiens, A2780, read-out: A2780 IC50",190 nM
same,IC50,A2780; [14],190 nM
same,IC50,"[6]; Mus musculus, P388",570 nM
same,IC50,"[6]; Mus musculus, P388, MTT",570 nM
same,IC50,"[7]; Homo sapiens, NCI-H460",38 nM
same,IC50,"[8]; Homo sapiens, NCI-H596",620 nM
same,H596/H460,[8],16
same,IC50,HUVEC,220 nM
same,IC50,"HUVEC; Homo sapiens, HUVEC",230 nM
same,IC50,tubulin [5],< 1.25 µM
same,anti-tumour activity in vivo,[9],active
same,ability to act as substrate for DT-diaphorase,DT-diaphorase,good substrates for the enzyme
same,tumour damage,[10],extensive damage to the tumours
COc1cc(/C=C\C2=CC(=O)C(C)=CC2=O)cc(OC)c1OC [Compound 98-23],IC50,A2780; read-out: A2780 IC50,2150 nM
same,IC50,A2780; read-out: IC50 (nM) A2780,2150 nM
same,IC50,[6],2180 nM
same,IC50,[6]; MTT,2180 nM
same,IC50,[7],4370 nM
same,IC50,[8],2280 nM
same,H596/H460,[8],0.52
same,ability to act as substrate for DT-diaphorase,DT-diaphorase,good substrates for the enzyme
COC1=CC(=O)C(CCc2cc(OC)c(OC)c(OC)c2)=CC1=O [Compound 98-24],IC50,A2780; [14],1630 nM
same,IC50,"[6]; Mus musculus, P388",17000 nM
same,IC50,"[7]; Homo sapiens, NCI-H460",3080 nM
same,IC50,"[8]; Homo sapiens, NCI-H596",1950 nM
same,H596/H460,[8],0.63
COc1cc(/C=C/C2=CC(=O)C(C)=CC2=O)cc(OC)c1OC [Compound 98-33],IC50,A2780; read-out: IC50 (nM) A2780,950 nM
same,IC50,[6],< 780 nM
same,IC50,[7],4110 nM
same,IC50,[8],1490 nM
same,H596/H460,[8],0.36
c1ccc2c(c1)ccc1ccccc12 [phenanthrene],IC50,[11],700 nM
"COc1ccc(/C=C/c2cc(OC)c(OC)c(OC)c2)cc1O [trans-CA-4, trans-combretastatin A-4, reference compound]",IC50,K562 cells,2 nM
same,inhibits cell growth,[12],μM range
"cis-combretastatin A-4 [Compound 1, reference compound]",% of cells in G0–G1,K562,3%
same,% of cells in G2-M,K562,92%
same,% of cells in S phase,K562,6%
same,% of cells with DNA content <2 n,K562,7%
same,water solubility,[13],poor water solubility
